Experimental data from ChEMBL document CHEMBL4477221, “Discovery and Structure-Based Optimization of 2-Ureidothiophene-3-carboxylic Acids as Dual Bacterial RNA Polymerase and Viral Reverse Transcriptase Inhibitors” (J Med Chem, 2016).
≈ marks a conversion by molar mass, not a printed value. Calls of active or inactive are those of the source. The rule behind the calls is not given here.

How the values were obtained:
[1] = target: Human immunodeficiency virus type 1 reverse transcriptase (Human immunodeficiency virus 1) (UniProt Q72547); test: Inhibition of HIV1 reverse transcriptase using T19-Cy5 labeled 23-mer DNA/T2-TAMRA labeled 63-mer DNA as primer/template assessed as inhibition of dNTP incorporation into primer/template at 10 uM relative to control
[2] = Inhibition of Escherichia coli RNA polymerase
[3] = target: Human immunodeficiency virus type 1 reverse transcriptase (Human immunodeficiency virus 1, UniProt Q72547); test: Inhibition of HIV1 reverse transcriptase using T19-Cy5 labeled 23-mer DNA/T2-TAMRA labeled 63-mer DNA as primer/template assessed as inhibition of dNTP incorporation into primer/template
[4] = target: Human immunodeficiency virus type 1 reverse transcriptase (Human immunodeficiency virus 1) (UniProt Q72547); test: Inhibition of TAMRA-labeled primer/template duplex binding to HIV1 Alexa 488-labeled reverse transcriptase by FRET assay
[5] = target: Human immunodeficiency virus type 1 reverse transcriptase (Human immunodeficiency virus 1) (UniProt Q72547); test: Effect on binding orientation of HIV1 Alexa 488-labeled reverse transcriptase to TAMRA-labeled primer/template duplex by FRET assay
[6] = test system: Human immunodeficiency virus 1; test: Binding affinity to bodipy-labeled HIV1 reverse transcriptase p66 W24C/K287C double mutant assessed as induction of p66 thumb and finger domain open conformation at 3 uM by fluorescence spectroscopic analysis
Staphylococcus aureus = test: Antibacterial activity against Staphylococcus aureus; format: functional
[7] = test system: Human immunodeficiency virus 1; test: Antiviral activity against HIV1 pseudoparticle expressing Gag, Gag-pol, RRE, and vesicular stomatitis virus-G protein assessed as inhibition of pseudoparticles entry into human HeLa cells pretreated for 30 mins followed by pseudoparticle addition measured 24 hrs post infection by luciferase reporter gene assay; format: functional, organism-based
[8] = Cytotoxicity against human HeLa cells infected with HIV1 pseudoparticle expressing Gag, Gag-pol, RRE, and vesicular stomatitis virus-G protein assessed as inhibition of cell viability at 25 uM preincubated with cells for 30 mins followed by pseudoparticle addition measured 24 hrs post infection by MTT assay relative to control; format: cell-based; details: read-out: INH
[9] = Cytotoxicity against HEK293 cells; format: cell-based; details: human, read-out: LD50 (the source's name)
[10] = target: Human immunodeficiency virus type 1 reverse transcriptase (Human immunodeficiency virus 1) (UniProt Q72547); test: Inhibition of HIV1 reverse transcriptase using T19-Cy5 labeled 23-mer DNA/T2-TAMRA labeled 63-mer DNA as primer/template assessed as inhibition of dNTP incorporation into primer/template at 1 uM relative to control
[11] = target: Human immunodeficiency virus type 1 reverse transcriptase (Human immunodeficiency virus 1) (UniProt Q72547); test: Inhibition of HIV1 reverse transcriptase using T19-Cy5 labeled 23-mer DNA/T2-TAMRA labeled 63-mer DNA as primer/template assessed as inhibition of dNTP incorporation into primer/template at 25 uM relative to control
[12] = test system: Human immunodeficiency virus 1; test: Antiviral activity against wild type HIV1 NL4-3; format: functional, organism-based; details: Human immunodeficiency virus 1, NL4-3
[13] = test system: Human immunodeficiency virus 1; test: Antiviral activity against NNRTI resistant HIV1 harboring reverse transcriptase V106I/Y181C/G190A/H221Y mutant assessed as inhibition of viral infection in human TZM-bl cells after 48 hrs by luciferase reporter gene assay; format: functional, organism-based; details: Human immunodeficiency virus 1, TZM-bl
[14] = Ratio of IC50 for NNRTI resistant HIV1 harboring reverse transcriptase A98G/K101E/Y181C/G190A mutant infected in human TZM-bl cells to IC50 for wild type HIV1 NL4-3 infected in human TZM-bl cells; format: functional
[15] = Ratio of IC50 for NNRTI resistant HIV1 harboring reverse transcriptase K103N/V179F/Y181C mutant infected in human TZM-bl cells to IC50 for wild type HIV1 NL4-3 infected in human TZM-bl cells; format: functional
[16] = Ratio of IC50 for NNRTI resistant HIV1 harboring reverse transcriptase L100I/K103N/H221Y mutant infected in human TZM-bl cells to IC50 for wild type HIV1 NL4-3 infected in human TZM-bl cells; format: functional
[17] = test system: Human immunodeficiency virus 1; test: Binding affinity to bodipy-labeled HIV1 reverse transcriptase p66 W24C/K287C double mutant assessed as induction of p66 thumb and finger domain open conformation by measuring increase in bodipy fluorescence at 10 uM by stopped flow kinetic analysis
[18] = test system: Human immunodeficiency virus 1; test: Antiviral activity against wild type HIV1 NL4-3 assessed as inhibition of viral infection in human TZM-bl cells after 48 hrs by luciferase reporter gene assay; format: functional, organism-based; details: Human immunodeficiency virus 1, NL4-3, TZM-bl
[19] = Human immunodeficiency virus 1, HeLa, read-out: IC50

| Compound | IC50 [2] [µM] | IC50 [3] [µM] | Activity [4] | Activity [5] | Activity [6] | MIC (Staphylococcus aureus) [µg/mL] | CC50 [9] [µM] | also measured |
| --- | --- | --- | --- | --- | --- | --- | --- | --- |
| CCN(Cc1ccccc1)C(=O)Nc1c(-c2ccc(Cl)cc2)csc1C(=O)O | > 200 | – | – | – | – | – | – | inhibition [1]: 13% |
| O=C(Cn1cncn1)Nc1ccc(NC(=O)Nc2sc(-c3ccc(Cl)c(Cl)c3)cc2C(=O)O)cc1 | 40 | 0.8 | inactive | inactive | inactive | – | – | – |
| O=C(Nc1ccc(F)cc1)Nc1sc(-c2ccc(Cl)c(Cl)c2)cc1C(=O)O | 14 | 0.7 | inactive | inactive | inactive | 4 (≈ 9.41 µM) | 68 | IC50 [7]: Not Active; cytotoxicity at 24 h, 25 µM [8]: 0% |
| CCN(Cc1ccccc1)C(=O)Nc1scc(-c2ccc(Cl)c(Cl)c2)c1C(=O)O | 57 | – | – | – | – | – | – | inhibition [10]: 12% |
| Cc1cn([C@H]2C[C@H](N=[N+]=[N-])[C@@H](CO[P@](=O)(O)O[P@](=O)(O)OP(=O)(O)O)O2)c(=O)[nH]c1=O [ZIDOVUDINE TRIPHOSPHATE] | – | 7 | – | – | – | – | – | – |
| COC(=O)Nc1ccc(NC(=O)Nc2sc(-c3ccc(Cl)c(Cl)c3)cc2C(=O)O)cc1 | 19 | 0.3 | inactive | inactive | inactive | 25 (≈ 52 µM) | 86 | IC50 [7, 19]: 30 µM; cytotoxicity at 24 h, 25 µM [8]: 6% |
| O=C(NCc1ccccc1)Nc1sc(-c2ccc(Cl)c(Cl)c2)cc1C(=O)O | 43 | – | – | – | – | – | – | inhibition [11]: 64% |
| CC(=O)Nc1ccc(NC(=O)Nc2sc(-c3ccc(Cl)c(Cl)c3)cc2C(=O)O)cc1 | 27 | 0.6 | inactive | inactive | inactive | – | – | – |
| Cc1cc(/C=C/C#N)cc(C)c1Nc1ccnc(Nc2ccc(C#N)cc2)n1 [RILPIVIRINE] | – | – | – | – | – | – | – | IC50 [12]: 0.0009 µM; IC50 [13]: 3.5 µM; Ratio IC50 [14]: 22; Ratio IC50 [15]: 2.3; Ratio IC50 [16]: 6.3 |
| CCN(Cc1ccccc1)C(=O)Nc1cc(-c2ccc(Cl)cc2)sc1C(=O)O | 75 | – | – | – | – | – | – | inhibition [11]: 12% |
| CN(C)S(=O)(=O)Nc1ccc(NC(=O)Nc2sc(-c3ccc(Cl)c(Cl)c3)cc2C(=O)O)cc1 | 23 | 0.6 | inactive | inactive | inactive | 13 (≈ 24.6 µM) | > 100 | – |
| O=C(Nc1ccccc1)Nc1sc(-c2ccc(Cl)c(Cl)c2)cc1C(=O)O | 20 | 1.2 | inactive | inactive | inactive | 6 (≈ 14.7 µM) | 61 | Activity [17]: inactive; IC50 [7, 19]: 20 µM; cytotoxicity at 24 h, 25 µM [8]: 0%; IC50 [18]: 5 µM; IC50 [13]: 1 µM; Ratio IC50 [14]: 3; Ratio IC50 [15]: >4; Ratio IC50 [16]: >4 |
| O=C1Nc2ccc(Cl)cc2[C@@](C#CC2CC2)(C(F)(F)F)O1 [EFAVIRENZ] | – | – | – | – | – | – | – | IC50 [13]: 26 µM |
| Nc1ccc(NC(=O)Nc2sc(-c3ccc(Cl)c(Cl)c3)cc2C(=O)O)cc1 | 53 | – | – | – | – | – | – | inhibition [11]: 64% |
| CCN(Cc1ccccc1)C(=O)Nc1cc(-c2ccc(Cl)c(Cl)c2)sc1C(=O)O | 22 | – | – | – | – | – | – | inhibition [11]: 24% |
| Cc1ccnc2c1NC(=O)c1cccnc1N2C1CC1 [NEVIRAPINE] | > 200 | – | – | – | – | – | – | Activity [17]: Active; IC50 [12]: 0.1 µM; IC50 [13]: > 200 µM |
| CCN(Cc1ccccc1)C(=O)Nc1sc(-c2ccc(Cl)cc2)cc1C(=O)O | 54 | – | – | – | – | – | – | inhibition [10]: 12% |
| CCN(Cc1ccccc1)C(=O)Nc1scc(-c2ccc(Cl)cc2)c1C(=O)O | > 100 | – | – | – | – | – | – | inhibition [10]: 12% |
| CCN(Cc1ccccc1)C(=O)Nc1c(-c2ccc(Cl)c(Cl)c2)csc1C(=O)O | 100 | – | – | – | – | – | – | inhibition [1]: 4% |
| CCN(Cc1ccccc1)C(=O)Nc1sc(-c2ccc(Cl)c(Cl)c2)cc1C(=O)O | 21 | 0.9 | inactive | inactive | inactive | 10 (≈ 22.3 µM) | 58 | IC50 [7, 19]: 27 µM; cytotoxicity at 24 h, 25 µM [8]: 23% |
| COc1ccc(NC(=O)Nc2sc(-c3ccc(Cl)c(Cl)c3)cc2C(=O)O)cc1 | 22 | 0.8 | inactive | inactive | inactive | 8 (≈ 18.3 µM) | 80 | IC50 [7, 19]: 35 µM; cytotoxicity at 24 h, 25 µM [8]: 12% |
| CS(=O)(=O)Nc1ccc(NC(=O)Nc2sc(-c3ccc(Cl)c(Cl)c3)cc2C(=O)O)cc1 | 26 | 0.1 | inactive | inactive | inactive | 39 (≈ 77.9 µM) | > 100 | IC50 [7, 19]: 30 µM; cytotoxicity at 24 h, 25 µM [8]: 0%; IC50 [18]: 5 µM; IC50 [13]: 1.5 µM; Ratio IC50 [14]: 3.5; Ratio IC50 [15]: >4; Ratio IC50 [16]: >4 |
| Cc1cc(C#N)cc(C)c1Oc1nc(Nc2ccc(C#N)cc2)nc(N)c1Br [ETRAVIRINE] | – | – | – | – | – | – | – | IC50 [12]: 0.005 µM; IC50 [13]: 6 µM; Ratio IC50 [14]: 15; Ratio IC50 [15]: 8.8; Ratio IC50 [16]: 6.8 |
| O=C(Nc1ccc(NS(=O)(=O)c2ccccc2)cc1)Nc1sc(-c2ccc(Cl)c(Cl)c2)cc1C(=O)O | 8 | 0.9 | inactive | inactive | inactive | 3 (≈ 5.33 µM) | 94 | IC50 [18]: 15 µM; IC50 [13]: > 1.5 µM; Ratio IC50 [14]: 1; Ratio IC50 [15]: >1.5; Ratio IC50 [16]: >1.5 |
| O=C(O)c1cc(-c2ccc(Cl)c(Cl)c2)sc1NC(=O)N(Cc1ccccc1)Cc1ccccc1 | 7 | – | – | – | – | – | – | inhibition [11]: 63% |
